Results reported in paper PMC3535830 (Bioorganic & medicinal chemistry letters, 2012).
Where two headings read alike, the source gives them in different places.

Key:
human M4 receptor [1] = target: T1, human M4 receptor (Homo sapiens, UniProt P08173); assay: human M4 positive allosteric modulator potency assay; format: cell-based; conditions: human M4 PAM; mean of at least 3 experiments
T1 sequence (P08173 1-479): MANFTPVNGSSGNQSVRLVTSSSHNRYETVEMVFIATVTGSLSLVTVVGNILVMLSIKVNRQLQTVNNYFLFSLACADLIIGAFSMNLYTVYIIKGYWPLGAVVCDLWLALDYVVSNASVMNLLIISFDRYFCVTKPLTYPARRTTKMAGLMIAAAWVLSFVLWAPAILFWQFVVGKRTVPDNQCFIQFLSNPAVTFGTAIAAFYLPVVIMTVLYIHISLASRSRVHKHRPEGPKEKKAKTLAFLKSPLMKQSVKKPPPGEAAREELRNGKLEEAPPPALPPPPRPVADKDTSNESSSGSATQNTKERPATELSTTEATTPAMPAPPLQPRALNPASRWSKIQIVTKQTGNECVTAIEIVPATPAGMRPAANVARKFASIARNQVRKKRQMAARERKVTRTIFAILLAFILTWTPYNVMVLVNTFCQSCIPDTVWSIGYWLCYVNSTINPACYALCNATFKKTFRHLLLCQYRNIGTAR

hM2 = target: T2, hM2 (Homo sapiens, UniProt P08172); assay: muscarinic selectivity hM2; format: cell-based
T2 sequence (P08172 1-466): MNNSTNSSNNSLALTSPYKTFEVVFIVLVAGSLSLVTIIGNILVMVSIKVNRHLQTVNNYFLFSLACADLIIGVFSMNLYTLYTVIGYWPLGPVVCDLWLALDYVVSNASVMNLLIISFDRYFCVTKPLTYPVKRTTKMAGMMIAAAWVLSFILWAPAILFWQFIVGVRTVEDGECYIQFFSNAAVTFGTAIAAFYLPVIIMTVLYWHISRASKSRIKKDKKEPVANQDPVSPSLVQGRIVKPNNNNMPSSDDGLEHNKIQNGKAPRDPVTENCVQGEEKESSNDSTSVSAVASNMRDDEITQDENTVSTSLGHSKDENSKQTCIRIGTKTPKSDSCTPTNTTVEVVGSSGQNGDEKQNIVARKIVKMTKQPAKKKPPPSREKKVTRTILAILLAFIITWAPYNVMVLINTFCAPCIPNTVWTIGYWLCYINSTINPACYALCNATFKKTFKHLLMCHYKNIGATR

[2] = rat equilibrium dialysis plasma protein binding; format: in vitro ADME; conditions: fraction unbound
rM2 = target: T3, rM2 (Rattus norvegicus, UniProt P10980); assay: muscarinic selectivity rM2; format: cell-based
T3 sequence (P10980 1-466): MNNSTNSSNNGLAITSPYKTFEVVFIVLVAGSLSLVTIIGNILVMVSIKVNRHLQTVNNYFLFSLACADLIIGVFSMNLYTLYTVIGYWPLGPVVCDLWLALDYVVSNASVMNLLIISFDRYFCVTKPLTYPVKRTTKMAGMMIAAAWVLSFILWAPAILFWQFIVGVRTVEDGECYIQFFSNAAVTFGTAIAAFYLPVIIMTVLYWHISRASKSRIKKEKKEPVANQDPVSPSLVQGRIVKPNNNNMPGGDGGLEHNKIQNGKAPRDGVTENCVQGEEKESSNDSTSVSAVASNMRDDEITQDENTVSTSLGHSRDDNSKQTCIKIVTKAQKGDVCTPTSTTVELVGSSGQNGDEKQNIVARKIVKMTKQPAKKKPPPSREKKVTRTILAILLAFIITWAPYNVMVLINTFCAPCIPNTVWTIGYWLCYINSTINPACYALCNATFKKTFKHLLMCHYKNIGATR

[3] = in vitro PK: predicted hepatic clearance, rat; format: in vitro ADME; conditions: for predicted clearance in the rat (CLHEP), in words: in vitro PK prediction; for rCLHEP: in vitro predicted hepatic clearance
[4] = in vitro PK: predicted hepatic clearance, human; format: in vitro ADME
[5] = tested on: other four mAChR subtypes (M1, M2, M3, M5); assay: selectivity against the other four mAChR subtypes; format: cell-based; conditions: read-out: activity against all four other mAChR subtypes
rat M4 receptor = target: T4, rat M4 receptor (Rattus norvegicus, UniProt P08485); conditions: read-out: rat M4 potency; cited from earlier work
T4 sequence (P08485 1-478): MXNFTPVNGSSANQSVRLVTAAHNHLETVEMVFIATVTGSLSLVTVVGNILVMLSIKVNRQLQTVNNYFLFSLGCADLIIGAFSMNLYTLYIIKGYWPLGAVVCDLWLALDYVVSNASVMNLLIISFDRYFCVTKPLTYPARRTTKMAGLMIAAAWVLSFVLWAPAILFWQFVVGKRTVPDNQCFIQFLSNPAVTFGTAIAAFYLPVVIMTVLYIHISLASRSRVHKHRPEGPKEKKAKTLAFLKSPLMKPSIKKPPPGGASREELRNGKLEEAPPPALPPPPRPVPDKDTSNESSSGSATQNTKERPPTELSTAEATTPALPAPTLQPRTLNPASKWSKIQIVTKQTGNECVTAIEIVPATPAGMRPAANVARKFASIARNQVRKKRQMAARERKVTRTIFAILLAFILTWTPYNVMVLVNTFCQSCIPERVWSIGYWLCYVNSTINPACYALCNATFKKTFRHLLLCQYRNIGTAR

human M4 receptor [6] = target: T1, human M4 receptor; conditions: cited from earlier work

pEC50 ± SEM (human M4 receptor [1]) | SMILES | also measured
6.91 ± 0.05 | Cc1nc2sc(C(=O)NCc3cccc(F)c3F)c(N)c2c(C)c1Cl [Compound 2] | 
7.11 ± 0.32 | Cc1nc2sc(C(=O)NC3CC3)c(N)c2c(C)c1Cl [Compound 3] | EC50 (hM2): ~600 nM; rPPB (%fu) [2]: ~ 2%; EC50 (rM2): ~600 nM; predicted clearance in the rat (CLHEP), in words [3]: high clearance; rCLHEP [3]: 51.0 mL/min/kg; hCLHEP [4]: 13.9 mL/min/kg
 | Cc1nc2sc(C(=O)NCc3ccncc3)c(N)c2c(C)c1Cl [Compound 4, 3-amino-5-chloro-4,6-dimethyl-N-(pyridinyl-4-methyl)thieno[2,3-b]pyridine-2-carboxamide] | predicted clearance in the rat (CLHEP), in words [3]: high clearance; rCLHEP [3]: 55.2 mL/min/kg; EC50 [5]: > 30000 nM
7.21 ± 0.05 | Cc1cc(CNC(=O)c2sc3nc(C)c(Cl)c(C)c3c2N)ccn1 [Compound 6] | 
6.17 ± 0.08 | Cc1nc2sc(C(=O)NC(C)c3cccnc3)c(N)c2c(C)c1Cl (centres unmarked) [Compound 8] | 
5.86 ± 0.07 | Cc1nc2sc(C(=O)NC(C)c3ccccn3)c(N)c2c(C)c1Cl (centres unmarked) [Compound 10] | 
6.89 ± 0.09 | Cc1nc2sc(C(=O)NCCc3ccncc3)c(N)c2c(C)c1Cl [Compound 11] | 
6.07 ± 0.06 | Cc1nc2sc(C(=O)NCCc3ccccn3)c(N)c2c(C)c1Cl [Compound 13] | 
6.57 ± 0.06 | Cc1nc2sc(C(=O)NCc3ccncn3)c(N)c2c(C)c1Cl [Compound 15] | 
6.49 ± 0.08 | Cc1nc2sc(C(=O)NCc3ccnnc3)c(N)c2c(C)c1Cl [Compound 17] | 
7.09 ± 0.08 | Cc1nc2sc(C(=O)NCc3ccc4c(c3)OCO4)c(N)c2c(C)c1Cl [Compound 18] | 
6.97 ± 0.05 | Cc1nc2sc(C(=O)NCc3ccccc3)c(N)c2c(C)c1Cl [Compound 19] | 
6.81 ± 0.28 | Cc1nc2sc(C(=O)NCc3ccc(F)c(F)c3)c(N)c2c(C)c1Cl [Compound 20] | 
6.81 ± 0.07 | Cc1nc2sc(C(=O)NCc3ccccc3Cl)c(N)c2c(C)c1Cl [Compound 21] | 
6.98 ± 0.10 | Cc1ccc(CNC(=O)c2sc3nc(C)c(Cl)c(C)c3c2N)cc1 [Compound 22] | 
6.75 ± 0.14 | Cc1nc2sc(C(=O)NCc3ccc(Cl)cc3)c(N)c2c(C)c1Cl [Compound 23] | 
6.60 ± 0.07 | Cc1nc2sc(C(=O)NCc3nccs3)c(N)c2c(C)c1Cl [Compound 24] | 
5.76 ± 0.27 | Cc1nc2sc(C(=O)NCc3ccc(C(F)(F)F)cc3)c(N)c2c(C)c1Cl [Compound 25] | 
7.28 ± 0.07 | Cc1nc2sc(C(=O)NC3CCOC3)c(N)c2c(C)c1Cl (centres unmarked) [Compound 29] | 
5.70 ± 0.24 | Cc1nc2sc(C(=O)NC3COC3)c(N)c2c(C)c1Cl [Compound 30] | 
6.83 ± 0.06 | Cc1nc2sc(C(=O)NC(C)C)c(N)c2c(C)c1Cl [Compound 31] | 
6.65 ± 0.03 | Cc1nc2sc(C(=O)NC3CCCCC3)c(N)c2c(C)c1Cl [Compound 32] | 
6.51 ± 0.05 | Cc1nc2sc(C(=O)NC(C)(C)C)c(N)c2c(C)c1Cl [Compound 34] | 
6.03 ± 0.07 | Cc1nc2sc(C(=O)NCCC3CCCN3C)c(N)c2c(C)c1Cl (centres unmarked) [Compound 36] | 
 | COc1nc2sc(C(=O)NC3CC3)c(N)c2c(C)c1Cl [LY2033298] | EC50 (rat M4 receptor): 629 nM; EC50 (human M4 receptor [6]; read-out: human M4 potency, human receptor): 65 nM
 | COc1ccc(C)c2sc(NC(=O)c3ccncc3)nc12 [ML293] | EC50 (human M4 receptor [6]; read-out: hM4 potency, previously reported probe, ref 9d): 1300 nM
